# Experimental data as given in ChEMBL document CHEMBL1201862, “PubChem BioAssay data set” (2004).
#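 Step 1: Grow cells in 96-well plates. Step 2: Expose to compound for 48 hours at 5 concentrations. Step 3: Interpolate endpoints linearly; if unreached, use highest concentration. The concentration for 50% growth inhibition is given as GI50.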 Activity calls are given as the source filed them. No stated cut-off is given here; in the data, active = GI50 up to about 1.1 µM and inactive = higher.
# Key:
# Assay in all cases: NCI tumour cell line growth inhibition, 48 h
# SF-539 = system: SF-539
# U-251 = system: U-251
# SK-MEL-28 = system: SK-MEL-28
# SK-OV-3 = system: SK-OV-3
# SNB-19 = system: SNB-19
# 786-0 = system: 786-0
# NCI-H226 = system: NCI-H226
# OVCAR-8 = system: OVCAR-8
# COLO 205 = system: COLO 205
# MDA-N = system: MDA-N
# NCI-H522 = system: NCI-H522
# SN12C = system: SN12C
# UACC-257 = system: UACC-257
# SK-MEL-5 = system: SK-MEL-5
# PC-3 = system: PC-3
# SF-295 = system: SF-295
# TK-10 = system: TK-10
# OVCAR-4 = system: OVCAR-4
# DU-145 = system: DU-145
# Malme-3M = system: Malme-3M
# MOLT-4 = system: MOLT-4
# ACHN = system: ACHN
# MDA-MB-435 = system: MDA-MB-435
# MDA-MB-231 = system: MDA-MB-231
# UACC-62 = system: UACC-62
# M14 = system: M14
# HCT-15 = system: HCT-15
# UO-31 = system: UO-31
# HT-29 = system: HT-29
# A549 = system: A549
# HOP-62 = system: HOP-62
# K562 = system: K562
# Hs-578T = system: Hs-578T
# HOP-92 = system: HOP-92
# IGROV-1 = system: IGROV-1
# OVCAR-3 = system: OVCAR-3
# SF-268 = system: SF-268
# LOX IMVI = system: LOX IMVI
# EKVX = system: EKVX
# KM12 = system: KM12
# RXF 393 = system: RXF 393
# A498 = system: A498
# OVCAR-5 = system: OVCAR-5
# T47D = system: T47D
# SR = system: SR
# NCI/ADR-RES = system: NCI/ADR-RES
# CAKI-1 = system: CAKI-1
# NCI-H460 = system: NCI-H460
# NCI-H23 = system: NCI-H23
# HCC 2998 = system: HCC 2998
# SK-MEL-2 = system: SK-MEL-2
# HCT-116 = system: HCT-116
# MCF7 = system: MCF7
# SW-620 = system: SW-620
# BT-549 = system: BT-549
# CCRF-CEM = system: CCRF-CEM
# RPMI-8226 = system: RPMI-8226
# SNB-75 = system: SNB-75
# HL-60 = system: HL-60
compound,measurement,setting,value
CCOC(=O)Oc1ccc2c(c1)c(=O)c1c(NCCCN(CC)CC)ccc3nnn2c31,GI50,SF-539,5.62 µM (inactive)
same,GI50,U-251,10.4 µM (inactive)
same,GI50,SK-MEL-28,18.6 µM (inactive)
same,GI50,SK-OV-3,11.3 µM (inactive)
same,GI50,SNB-19,5.2 µM (inactive)
same,GI50,786-0,1.59 µM (inactive)
same,GI50,NCI-H226,7.18 µM (inactive)
same,GI50,OVCAR-8,3.48 µM (inactive)
same,GI50,COLO 205,11.7 µM (inactive)
same,GI50,MDA-N,1.19 µM (inactive)
same,GI50,NCI-H522,1.56 µM (inactive)
same,GI50,SN12C,3.67 µM (inactive)
same,GI50,UACC-257,15.4 µM (inactive)
same,GI50,SK-MEL-5,10.2 µM (inactive)
same,GI50,PC-3,0.303 µM (active)
same,GI50,SF-295,1.82 µM (inactive)
same,GI50,TK-10,2.79 µM (inactive)
same,GI50,OVCAR-4,0.33 µM (active)
same,GI50,DU-145,0.951 µM (active)
same,GI50,Malme-3M,13.4 µM (inactive)
same,GI50,MOLT-4,0.745 µM (active)
same,GI50,ACHN,0.82 µM (active)
same,GI50,MDA-MB-435,5.45 µM (inactive)
same,GI50,MDA-MB-231,1.12 µM (inactive)
same,GI50,UACC-62,15.3 µM (inactive)
same,GI50,M14,12.3 µM (inactive)
same,GI50,HCT-15,3.09 µM
same,GI50,UO-31,0.598 µM (active)
same,GI50,HT-29,2.55 µM (inactive)
same,GI50,A549,1.64 µM (inactive)
same,GI50,HOP-62,1.75 µM (inactive)
same,GI50,K562,5.13 µM (inactive)
same,GI50,Hs-578T,20.5 µM (inactive)
same,GI50,HOP-92,6.76 µM (inactive)
same,GI50,IGROV-1,5.36 µM (inactive)
same,GI50,OVCAR-3,5.5 µM (inactive)
same,GI50,SF-268,11.6 µM (inactive)
same,GI50,LOX IMVI,2.52 µM (inactive)
same,GI50,EKVX,10.7 µM (inactive)
same,GI50,KM12,0.982 µM (active)
same,GI50,RXF 393,1.81 µM (inactive)
same,GI50,A498,11.1 µM (inactive)
same,GI50,OVCAR-5,16.6 µM (inactive)
same,GI50,T47D,16.8 µM (inactive)
same,GI50,SR,1.57 µM (inactive)
same,GI50,NCI/ADR-RES,7.76 µM (inactive)
same,GI50,CAKI-1,0.53 µM (active)
same,GI50,NCI-H460,0.337 µM (active)
same,GI50,NCI-H23,13.3 µM (inactive)
same,GI50,HCC 2998,1.43 µM (inactive)
same,GI50,SK-MEL-2,16.2 µM (inactive)
same,GI50,HCT-116,1.37 µM (inactive)
same,GI50,MCF7,0.929 µM (active)
same,GI50,SW-620,2.24 µM (inactive)
same,GI50,BT-549,17.5 µM (inactive)
same,GI50,CCRF-CEM,0.889 µM (active)
same,GI50,RPMI-8226,2.17 µM (inactive)
O=S1(=O)CCN(Cc2ccccc2)/C1=N\S(=O)(=O)c1ccc(Cl)cc1,GI50,SF-539,18.7 µM (inactive)
same,GI50,U-251,18 µM (inactive)
same,GI50,SNB-75,21.2 µM (inactive)
same,GI50,SK-MEL-28,18.3 µM (inactive)
same,GI50,SK-OV-3,47.4 µM (inactive)
same,GI50,SNB-19,57 µM (inactive)
same,GI50,786-0,19.7 µM (inactive)
same,GI50,NCI-H226,17.8 µM (inactive)
same,GI50,OVCAR-8,17 µM (inactive)
same,GI50,COLO 205,19.4 µM (inactive)
same,GI50,MDA-N,18.2 µM (inactive)
same,GI50,NCI-H522,14.5 µM (inactive)
same,GI50,SN12C,19.2 µM (inactive)
same,GI50,UACC-257,20.7 µM (inactive)
same,GI50,SK-MEL-5,21.2 µM (inactive)
same,GI50,PC-3,18 µM (inactive)
same,GI50,SF-295,48.2 µM (inactive)
same,GI50,TK-10,17 µM (inactive)
same,GI50,OVCAR-4,18.8 µM (inactive)
same,GI50,DU-145,20.5 µM (inactive)
same,GI50,MOLT-4,20.5 µM (inactive)
same,GI50,ACHN,18.8 µM (inactive)
same,GI50,MDA-MB-435,19.1 µM (inactive)
same,GI50,MDA-MB-231,> 100 µM (inactive)
same,GI50,UACC-62,17.8 µM (inactive)
same,GI50,M14,17.3 µM (inactive)
same,GI50,HCT-15,20.3 µM
same,GI50,UO-31,17.5 µM (inactive)
same,GI50,HT-29,17.9 µM (inactive)
same,GI50,A549,65.3 µM (inactive)
same,GI50,HOP-62,65.2 µM (inactive)
same,GI50,K562,35.6 µM (inactive)
same,GI50,Hs-578T,26.2 µM (inactive)
same,GI50,HOP-92,18.6 µM (inactive)
same,GI50,IGROV-1,17.8 µM (inactive)
same,GI50,OVCAR-3,19.4 µM (inactive)
same,GI50,SF-268,16.6 µM (inactive)
same,GI50,LOX IMVI,18.1 µM (inactive)
same,GI50,EKVX,15.1 µM (inactive)
same,GI50,KM12,27.4 µM (inactive)
same,GI50,RXF 393,19.5 µM (inactive)
same,GI50,A498,28.5 µM (inactive)
same,GI50,OVCAR-5,18.1 µM (inactive)
same,GI50,T47D,22.2 µM (inactive)
same,GI50,HL-60,22.8 µM (inactive)
same,GI50,SR,24.2 µM (inactive)
same,GI50,NCI/ADR-RES,16.6 µM (inactive)
same,GI50,CAKI-1,19.1 µM (inactive)
same,GI50,NCI-H460,22.3 µM (inactive)
same,GI50,NCI-H23,18.9 µM (inactive)
same,GI50,HCC 2998,19.3 µM (inactive)
same,GI50,SK-MEL-2,23.4 µM (inactive)
same,GI50,HCT-116,18.5 µM (inactive)
same,GI50,MCF7,22.8 µM (inactive)
same,GI50,SW-620,19.1 µM (inactive)
same,GI50,BT-549,17.2 µM (inactive)
same,GI50,CCRF-CEM,24.9 µM (inactive)
same,GI50,RPMI-8226,25.8 µM (inactive)
